Measurements taken from patent US9193722B2, “Tri-cyclic pyrazolopyridine kinase inhibitors” (Vertex Pharmaceuticals Incorporated, priority 2008, dated 2015).

Key:
Format in all cases: biochemical
PKC delta kinase = PKC delta kinase (Homo sapiens, UniProt Q05655); assay: PKC delta kinase inhibition, coupled-enzyme (NADH absorbance) assay, Ki; conditions: 150 μM ATP, 46 nM PKC delta kinase, 30° C.; read-out: Ki PKC delta
How it was run: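 PKC delta in 100 mM HEPES pH 7.5, 10 mM MgCl2, 25 mM NaCl, 0.1 mM EDTA, 0.01% Brij, equilibrated 10 min at 30° C with compound from DMSO stock. Started with ATP at 150 μM final; NADH-coupled absorbance at 340 nm followed 15 min at 30° C. Ki from initial rates by non-linear regression.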

PKC theta kinase = PKC theta kinase (Homo sapiens, UniProt Q04759); assay: PKC theta kinase inhibition, coupled-enzyme (NADH absorbance) assay, Ki; conditions: 240 μM ATP, 18 nM PKC theta kinase, 30° C.
PKC theta kinase, sequence (Q04759 whole entry): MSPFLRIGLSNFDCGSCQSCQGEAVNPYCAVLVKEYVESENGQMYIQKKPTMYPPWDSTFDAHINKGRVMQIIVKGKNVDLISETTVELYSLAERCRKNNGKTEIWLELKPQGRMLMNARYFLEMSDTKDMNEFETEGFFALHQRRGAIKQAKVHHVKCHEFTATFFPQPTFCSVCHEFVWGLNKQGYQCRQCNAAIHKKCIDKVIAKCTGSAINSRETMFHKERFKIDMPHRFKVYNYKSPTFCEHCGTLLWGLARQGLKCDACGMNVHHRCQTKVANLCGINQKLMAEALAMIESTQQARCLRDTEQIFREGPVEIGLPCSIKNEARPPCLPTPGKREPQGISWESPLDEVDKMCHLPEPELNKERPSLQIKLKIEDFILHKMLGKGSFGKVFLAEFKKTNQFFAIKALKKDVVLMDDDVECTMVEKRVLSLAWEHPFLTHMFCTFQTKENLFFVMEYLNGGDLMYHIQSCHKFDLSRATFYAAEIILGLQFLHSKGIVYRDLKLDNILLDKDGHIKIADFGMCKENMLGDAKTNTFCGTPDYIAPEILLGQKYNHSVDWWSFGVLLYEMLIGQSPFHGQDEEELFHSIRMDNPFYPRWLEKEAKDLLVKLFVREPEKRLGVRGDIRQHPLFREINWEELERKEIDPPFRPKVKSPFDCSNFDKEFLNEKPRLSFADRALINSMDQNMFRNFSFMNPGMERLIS
How it was run: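 Coupled-enzyme kinase assay following NADH absorbance at 340 nm, in 100 mM HEPES pH 7.5, 10 mM MgCl2, 25 mM NaCl, 0.1 mM EDTA, 0.01% Brij. Compound in DMSO preincubated with enzyme 10 min at 30 °C. Ki from initial rates by non-linear regression.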

PKC alpha kinase = PKC alpha kinase (Homo sapiens, UniProt P17252); assay: PKC alpha kinase inhibition, coupled-enzyme (NADH absorbance) assay, Ki; conditions: 130 μM ATP, 4.5 nM PKC alpha kinase, 30° C.
How it was run: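 Enzyme in 100 mM HEPES pH 7.5, 10 mM MgCl2, 100 μM CaCl2, 0.01% Brij, preincubated with compound 10 min at 30 °C. Reaction started with 130 μM ATP (final); NADH consumption followed at 340 nm for 15 min at 30 °C. Ki fitted by non-linear regression of initial rates.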

PKC delta kinase, sequence (Q05655 whole entry): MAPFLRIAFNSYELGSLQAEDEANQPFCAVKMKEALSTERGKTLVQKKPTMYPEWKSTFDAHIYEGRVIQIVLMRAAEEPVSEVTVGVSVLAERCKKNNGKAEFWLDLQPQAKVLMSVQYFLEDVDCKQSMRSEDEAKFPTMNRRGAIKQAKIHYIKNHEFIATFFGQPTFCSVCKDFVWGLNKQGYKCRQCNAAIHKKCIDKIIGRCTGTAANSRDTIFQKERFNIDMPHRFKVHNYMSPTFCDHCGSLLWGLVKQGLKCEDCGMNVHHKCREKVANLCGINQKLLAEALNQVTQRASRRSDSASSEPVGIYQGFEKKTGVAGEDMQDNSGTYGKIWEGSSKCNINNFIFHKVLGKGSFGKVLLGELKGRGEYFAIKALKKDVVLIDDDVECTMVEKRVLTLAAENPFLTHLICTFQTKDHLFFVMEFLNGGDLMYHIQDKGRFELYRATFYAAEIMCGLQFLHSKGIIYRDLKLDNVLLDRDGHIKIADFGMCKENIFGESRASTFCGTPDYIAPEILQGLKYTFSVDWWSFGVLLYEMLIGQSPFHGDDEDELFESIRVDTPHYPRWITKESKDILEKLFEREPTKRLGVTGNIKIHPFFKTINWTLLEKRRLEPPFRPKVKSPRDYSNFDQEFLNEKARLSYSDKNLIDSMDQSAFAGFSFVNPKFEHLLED

SMILES	Ki (PKC delta kinase) [µM]	Ki (PKC theta kinase) [µM]	Ki (PKC alpha kinase) [µM]
CC1(C)CC1(O)C1CN(c2ccc(F)c(-c3n[nH]c4ncccc34)n2)CCN1 (stereo not drawn) [Compound 383]	> 1.25	< 0.5	> 1.25
CO[C@H]1CN(c2ccc(C(F)(F)F)c(-c3n[nH]c4ncccc34)n2)CC[C@H]1N [Compound 384]	> 1.25	< 0.5	> 1.25
CC(C)CC1(C)CN(c2ccc(F)c(-c3n[nH]c4ncccc34)n2)CCC1N (stereo not drawn) [Compound 385]	< 0.5	< 0.05	< 0.5
CC(C)CC1CN(c2ccc(F)c(-c3n[nH]c4ncccc34)n2)CCC1CN (stereo not drawn) [Compound 386]	< 0.5	< 0.05	< 2.8
NCC1CN(c2ccc(F)c(-c3n[nH]c4ncccc34)n2)C1 [Compound 387]	> 1.25	< 0.5	> 1.25
CO[C@H]1CN(c2ccc(F)c(-c3n[nH]c4ncccc34)n2)CC[C@H]1N [Compound 389]	< 2.8	< 0.5	< 2.8
CC(C)(C(N)C1CCCN(c2ccc(F)c(-c3n[nH]c4ncccc34)n2)C1)C(F)(F)F (stereo not drawn) [Compound 390]	> 1.25	< 0.05	> 1.25
CCC(CC)C(N)C1CCCN(c2ccc(F)c(-c3n[nH]c4ncccc34)n2)C1 (stereo not drawn) [Compound 391]	< 2.8	< 0.05	> 1.25
CC(C)(C(N)C1CCCN(c2ccc(F)c(-c3n[nH]c4ncccc34)n2)C1)C(F)(F)F (stereo not drawn) [Compound 393]	< 0.05	< 0.001	< 2.8
CC(C)(C(N)C1CCCN(c2ccc(F)c(-c3n[nH]c4ncccc34)n2)C1)C(F)(F)F (stereo not drawn) [Compound 394]	> 1.25	< 0.5	> 1.25
NCC1CN(c2ccc(F)c(-c3n[nH]c4ncccc34)n2)CCO1 (stereo not drawn) [Compound 395]	> 1.25	< 0.5	> 1.25
CC(C)CC1(C)C=CCN(c2ccc(C(F)(F)F)c(-c3n[nH]c4ncccc34)n2)C1 (stereo not drawn) [Compound 396]	> 1.25	> 0.7	> 1.25
CC(C)CC1(CN)CN(c2ccc(C(F)(F)F)c(-c3n[nH]c4ncccc34)n2)CCO1 (stereo not drawn) [Compound 397]	< 0.5	< 0.5	< 2.8
NC(=O)C1(N)CCN(c2ccc(C(F)(F)F)c(-c3n[nH]c4ncccc34)n2)CC1 [Compound 398]	> 1.25	> 0.7	> 1.25
NC(=O)C1(N)CCN(c2ccc(F)c(-c3n[nH]c4ncccc34)n2)CC1 [Compound 399]	> 1.25	> 0.7	> 1.25
CC(C)CC1(O)CN(c2ccc(F)c(-c3n[nH]c4ncccc34)n2)CCC1C#N (stereo not drawn) [Compound 400]	< 2.8	< 0.05	> 1.25
CC(C)CC1(O)CN(c2ccc(C(F)(F)F)c(-c3n[nH]c4ncccc34)n2)CCC1C#N (stereo not drawn) [Compound 401]	< 2.8	< 0.05	> 1.25
COC(=O)C1(CC(C)C)CN(c2ccc(C(F)(F)F)c(-c3n[nH]c4ncccc34)n2)CCC1N (stereo not drawn) [Compound 402]	< 0.5	< 0.5	> 1.25
CCC1(CN)CN(c2ccc(C(F)(F)F)c(-c3n[nH]c4ncccc34)n2)CCO1 (stereo not drawn) [Compound 403]	< 0.5	< 0.05	> 1.25
CCCC1(CN)CN(c2ccc(C(F)(F)F)c(-c3n[nH]c4ncccc34)n2)CCO1 (stereo not drawn) [Compound 404]	< 0.5	< 0.5	< 2.8
CC(C)CC1(C(F)(F)F)CN(c2ccc(C(F)(F)F)c(-c3n[nH]c4ncccc34)n2)CCC1N (stereo not drawn) [Compound 405]	< 0.5	< 0.5	> 1.25
CCC1CN(c2ccc(C(F)(F)F)c(-c3n[nH]c4ncccc34)n2)CCC1C#N (stereo not drawn) [Compound 406]	> 1.25	< 0.5	> 1.25
CCC1CN(c2ccc(F)c(-c3n[nH]c4ncccc34)n2)CCC1C#N (stereo not drawn) [Compound 407]	< 2.8	< 0.05	> 1.25
